Data on 3 molecules can be found in paper PMC3683042, “Solution Structure and Peptide Binding of the PTB Domain from the AIDA1 Postsynaptic Signaling Scaffolding Protein” (PLoS ONE, 2013).

For one assay, the target named is X11 PTB domain. The settings on record: Discussion; read-out: dissociation constant, X11 (given jointly for X11/Fe65); cited from earlier work. An excerpt:
(§1) This difference in affinity may be advantageous for AIDA1 to participate in signaling contexts beyond APP. From a peptide array study, we determined that the consensus sequence is less stringent NxxY versus NPxY for others in the same Dab-like class of PTB domains. Thus, at the neuronal synapse, AIDA1 could serve as a versatile collator and ...

The next assay addresses AIDA1 PTB domain. The assay is described as follows: Binding of APP peptides to the AIDA1 PTB domain. Set-up: species or system human. An excerpt:
A gene fragment encoding the PTB domain (aa. 1043–1195) of human AIDA1b was PCR amplified with NdeI and EcoRI restriction sites and was subsequently inserted into pET28a (Novagen). The expressed protein contained an amino terminal 6xHis tag and intervening thrombin site. Other PTB domain fragments that lacked either the N-terminal 6xHis tag or the entire affinity tag along with 16 additional unstructured residues were also as […] as the fragment chosen for this study. To align the PTB domain described in this study with numerous AIDA1 isoforms, S1 in the PTB domain structure corresponds to S1045 in AIDA1b, the longest isoform. A one-liter fermentation in a minimal medium containing 1 g of ^15NH4Cl and 4 g of ^13C-glucose was sufficient to produce 5–10 mg of purified protein. Purification was achieved by Nickel-NTA affinity chromatography (Qiagen) and gel filtration chromatography on a S-100 HR 16/60 size exclusion column (GE Biosciences). Final buffer conditions were 20 mM Na-phosphate, pH 7.8, 0.15 M NaCl, 0.05% (w/v) NaN3. […] A 6xHis tagged PTB domain variant containing all five substitutions (PTB5M) was produced by DNA2.0 (Menlo Park, CA) by direct gene synthesis in the expression vector, pJExpress401 (T5 promoter plus kanamycin resistance). A 6xHis-tagged, APP-peptide ([…]) fused to the amino terminus of the AIDA1 PTB5M mutant with an intervening thrombin site was also synthesized by DNA2.0 in pJExpress401.
Fluorescein isothiocyanate (FITC) labeled peptides spanning portions of APP were produced and purified by CanPeptide (Montreal, QC) for fluorescence anisotropy based binding studies at 25°C using an Agilent Eclipse spectrophotometer equipped with a manual polarizer accessory. Buffer conditions were similar to those used for NMR spectroscopy. […] Anisotropy was calculated from the relationship (Iparallel–GIperp)/(Iparallel[…]) and normalized with the blank experiment. The equilibrium dissociation constant (KD) was calculated by direct fitting the titration curves with a standard two-state relationship using proFit 6.2 (Quantsoft).

A further assay has as its target Fe65 PTB2 domain. The settings on record: Discussion; read-out: dissociation constant, Fe65 (given jointly for X11/Fe65); cited from earlier work.
From the text: as §1, with “One threonine (T668) in APP located in this extended region is susceptible to phosphorylation and acts as a switch that repartitions the cis and trans states of the adjacent proline (P669) that, in turn, affects the ability of Fe65 to engage its ligand. […] This” for “This”

For assay [1], the target named is T1, AIDA1 PTB domain, PTB5M mutant (Homo sapiens, UniProt Q7Z6G8, F1057A/F1065A/Y1047A/Y1111A/Y1172A).
T1 construct: A gene fragment encoding the PTB domain (aa. 1043–1195) of human AIDA1b; 6xHis; made in house; host or cells: gene synthesised by DNA2.0 in pJExpress401
T1 sequence (Q7Z6G8 1043-1195 Y1047A/F1057A/F1065A/Y1111A/Y1172A): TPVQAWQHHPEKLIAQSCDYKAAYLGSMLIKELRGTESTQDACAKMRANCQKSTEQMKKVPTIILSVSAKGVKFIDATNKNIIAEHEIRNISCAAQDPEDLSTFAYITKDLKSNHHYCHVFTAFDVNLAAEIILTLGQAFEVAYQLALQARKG
Description: Fluorescence anisotropy binding of FITC-labeled APP peptides to PTB5M. The settings on record: FITC-labeled peptide, 25°C, buffer similar to NMR (20 mM Na-phosphate, pH 7.8, 0.15 M NaCl), two-state fit, n = 4 (APP-32), n = 2 (APP-17), n = 1 (APP-17{pY}). An excerpt: (§2) A gene fragment encoding the PTB domain (aa. 1043–1195) of human AIDA1b was PCR amplified with NdeI and EcoRI restriction sites and was subsequently inserted into pET28a (Novagen). The expressed protein contained an amino terminal 6xHis tag and intervening thrombin site. Other PTB domain fragments that lacked either the N-terminal 6xHis tag or the entire affinity tag along with 16 additional unstructured residues were also as […] as the fragment chosen for this study. To align the PTB domain described in this study with numerous AIDA1 isoforms, S1 in the PTB domain structure corresponds to S1045 in AIDA1b, the longest isoform. A one-liter fermentation in a minimal medium containing 1 g of ^15NH4Cl and 4 g of ^13C-glucose was sufficient to produce 5–10 mg of purified protein. […]
(§3) Fluorescein isothiocyanate (FITC) labeled peptides spanning portions of APP were produced and purified by CanPeptide (Montreal, QC) for fluorescence anisotropy based binding studies at 25°C using an Agilent Eclipse spectrophotometer equipped with a manual polarizer accessory. […] Anisotropy was calculated from the relationship (Iparallel–GIperp)/(Iparallel[…]) and normalized with the blank experiment. The equilibrium dissociation constant (KD) was calculated by direct fitting the titration curves with a standard two-state relationship using proFit 6.2 (Quantsoft).
(In general: Fluorescence polarisation rises when a labelled molecule tumbles more slowly, as on binding a larger partner.)

Assay [2] deals with T2, AIDA1 PTB domain, Y70A mutant (PTBY70A) (Homo sapiens, UniProt Q7Z6G8, Y1111A).
T2 construct: A gene fragment encoding the PTB domain (aa. 1043–1195) of human AIDA1b; 6xHis tag with thrombin site (N); made in house; host or cells: pET28a vector
T2 sequence (Q7Z6G8 1040-1192 Y1111A): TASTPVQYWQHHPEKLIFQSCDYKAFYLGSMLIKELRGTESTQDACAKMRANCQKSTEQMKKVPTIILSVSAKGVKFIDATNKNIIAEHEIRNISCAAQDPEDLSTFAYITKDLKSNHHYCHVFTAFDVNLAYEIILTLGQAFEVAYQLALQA
Description: Fluorescence anisotropy binding of FITC-labeled APP peptides to PTBY70A. The settings on record: FITC-labeled peptide, 25°C, buffer similar to NMR (20 mM Na-phosphate, pH 7.8, 0.15 M NaCl), two-state fit, n = 4 (APP-32), n = 2 (APP-17).
From the text: as §2, §3

Residues, ends and D or L forms follow the SMILES beside them. *: point of attachment. FITC = O=C1OC2(c3ccc(O)cc3Oc3cc(O)ccc32)c2ccc(NC(=S)*)cc21

For the molecule “amyloid protein precursor (APP): amyloid protein precursor (APP)”, the Kd on X11 PTB domain was less than 1 µM; on AIDA1 PTB domain (approximate value of text/abstract), roughly 10 µM; at Fe65 PTB2 domain it was less than 1 µM. Also, the “affinity of the AIDA1 PTB domain (in words)” value in the assay on AIDA1 PTB domain (relative to similar APP binding proteins such as X11/Fe65) was “moderate”.

On to `CSCC[C@H](NC(=O)[C@H](CCC(N)=O)NC(=O)[C@H](CCC(=O)O)NC(=O)[C@H](Cc1ccccc1)NC(=O)[C@H](Cc1ccccc1)NC(=O)[C@H](CCCCN)NC(=O)[C@H](Cc1ccc(O)cc1)NC(=O)[C@@H](NC(=O)[C@@H]1CCCN1C(=O)[C@H](CC(N)=O)NC(=O)[C@H](CCC(=O)O)NC(=O)[C@H](Cc1ccc(O)cc1)NC(=O)CNC(=O)[C@H](CC(N)=O)NC(=O)[C@H](CCC(N)=O)NC(=O)CNC(=O)CNC(=S)Nc1ccc2c(c1)C(=O)OC21c2ccc(O)cc2Oc2cc(O)ccc21)[C@@H](C)O)C(=O)N[C@@H](CCC(N)=O)C(=O)N[C@@H](CC(N)=O)C(=O)O` [APP-17] ({FITC}-GGQNGYENPTYKFFEQMQN-OH; C-terminus assumed), for which the “binding affinity to the AIDA1 PTB domain, long versus short APP peptide” value in the assay with AIDA1 PTB domain (fluorescence anisotropy titration, in words) is “no differences in binding affinity”.

Turning to `CSCC[C@H](NC(=O)[C@H](CCC(N)=O)NC(=O)[C@H](CCC(=O)O)NC(=O)[C@H](Cc1ccccc1)NC(=O)[C@H](Cc1ccccc1)NC(=O)[C@H](CCCCN)NC(=O)[C@H](Cc1ccc(O)cc1)NC(=O)[C@@H](NC(=O)[C@@H]1CCCN1C(=O)[C@H](CC(N)=O)NC(=O)[C@H](CCC(=O)O)NC(=O)[C@H](Cc1ccc(O)cc1)NC(=O)CNC(=O)[C@H](CC(N)=O)NC(=O)[C@H](CCC(N)=O)NC(=O)[C@H](CCC(N)=O)NC(=O)[C@H](CCSC)NC(=O)[C@H](CCCCN)NC(=O)[C@H](CO)NC(=O)[C@H](CC(C)C)NC(=O)[C@H](Cc1c[nH]cn1)NC(=O)[C@H](CCCNC(=N)N)NC(=O)[C@H](CCC(=O)O)NC(=O)[C@H](CCC(=O)O)NC(=O)[C@@H]1CCCN1C(=O)[C@@H](NC(=O)[C@@H](NC(=O)[C@H](C)NC(=O)[C@H](C)NC(=O)[C@H](CC(=O)O)NC(=O)CNC(=O)CN)C(C)C)[C@@H](C)O)[C@@H](C)O)C(=O)N[C@@H](CCC(N)=O)C(=O)N[C@@H](CC(N)=O)C(=O)O` [APP-32] (H-GGDAAVTPEERHLSKMQQNGYENPTYKFFEQMQN-OH), the Kd in assay [1] was 14.8 ± 1 µM; in assay [2], 13.3 ± 1.5 µM.
